Measured values taken from patent US20220340597A1, “HEXAHYDRO-1H-PYRAZINO[1,2-A]PYRAZINE COMPOUNDS FOR THE TREATMENT OF AUTOIMMUNE DISEASE” (Hoffmann-La Roche Inc., priority 2019, published 2022).

Key:
[1] = target: T1, human TLR8 (Homo sapiens, UniProt Q9NR97); assay: HEK293-Blue-hTLR-8 cells assay
T1 sequence (Q9NR97 27-1041): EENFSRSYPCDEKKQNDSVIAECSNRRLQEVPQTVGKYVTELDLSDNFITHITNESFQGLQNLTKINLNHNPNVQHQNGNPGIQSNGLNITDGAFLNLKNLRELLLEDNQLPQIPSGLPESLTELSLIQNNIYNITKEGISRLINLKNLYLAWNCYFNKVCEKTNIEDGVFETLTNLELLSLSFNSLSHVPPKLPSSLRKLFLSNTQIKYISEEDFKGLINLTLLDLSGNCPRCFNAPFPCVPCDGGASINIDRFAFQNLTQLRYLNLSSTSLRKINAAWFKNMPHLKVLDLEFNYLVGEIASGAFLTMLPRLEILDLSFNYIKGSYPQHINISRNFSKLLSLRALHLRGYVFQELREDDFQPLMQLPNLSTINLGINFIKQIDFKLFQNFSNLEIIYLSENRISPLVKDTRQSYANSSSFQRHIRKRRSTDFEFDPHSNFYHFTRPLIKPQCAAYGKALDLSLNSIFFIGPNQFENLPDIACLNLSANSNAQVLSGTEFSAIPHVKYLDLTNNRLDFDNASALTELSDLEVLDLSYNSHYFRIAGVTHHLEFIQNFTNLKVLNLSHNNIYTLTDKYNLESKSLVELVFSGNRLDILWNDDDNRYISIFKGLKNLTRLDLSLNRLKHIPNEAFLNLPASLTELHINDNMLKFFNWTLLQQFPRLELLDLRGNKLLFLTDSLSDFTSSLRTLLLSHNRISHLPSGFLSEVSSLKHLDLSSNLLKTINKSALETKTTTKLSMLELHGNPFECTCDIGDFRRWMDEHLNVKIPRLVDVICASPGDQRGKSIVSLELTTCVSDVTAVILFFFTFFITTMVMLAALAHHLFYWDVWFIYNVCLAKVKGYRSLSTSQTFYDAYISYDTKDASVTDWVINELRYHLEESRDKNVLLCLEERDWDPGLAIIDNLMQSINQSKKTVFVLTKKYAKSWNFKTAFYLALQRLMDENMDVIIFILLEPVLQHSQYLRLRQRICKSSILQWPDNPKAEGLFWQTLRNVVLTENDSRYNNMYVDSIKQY

[2] = target: T2, human TLR7 (Homo sapiens, UniProt Q9NYK1); assay: HEK293-Blue-hTLR-7 cells assay; format: cell-based; settings: HEK293-Blue-hTLR7 cells, R848 stimulation, 20 hrs, SEAP reporter; read-out: HEK/hTLR7 IC50
T2 construct: host or cells: HEK293 (HEK-Blue hTLR7)
T2 sequence (Q9NYK1 27-1049): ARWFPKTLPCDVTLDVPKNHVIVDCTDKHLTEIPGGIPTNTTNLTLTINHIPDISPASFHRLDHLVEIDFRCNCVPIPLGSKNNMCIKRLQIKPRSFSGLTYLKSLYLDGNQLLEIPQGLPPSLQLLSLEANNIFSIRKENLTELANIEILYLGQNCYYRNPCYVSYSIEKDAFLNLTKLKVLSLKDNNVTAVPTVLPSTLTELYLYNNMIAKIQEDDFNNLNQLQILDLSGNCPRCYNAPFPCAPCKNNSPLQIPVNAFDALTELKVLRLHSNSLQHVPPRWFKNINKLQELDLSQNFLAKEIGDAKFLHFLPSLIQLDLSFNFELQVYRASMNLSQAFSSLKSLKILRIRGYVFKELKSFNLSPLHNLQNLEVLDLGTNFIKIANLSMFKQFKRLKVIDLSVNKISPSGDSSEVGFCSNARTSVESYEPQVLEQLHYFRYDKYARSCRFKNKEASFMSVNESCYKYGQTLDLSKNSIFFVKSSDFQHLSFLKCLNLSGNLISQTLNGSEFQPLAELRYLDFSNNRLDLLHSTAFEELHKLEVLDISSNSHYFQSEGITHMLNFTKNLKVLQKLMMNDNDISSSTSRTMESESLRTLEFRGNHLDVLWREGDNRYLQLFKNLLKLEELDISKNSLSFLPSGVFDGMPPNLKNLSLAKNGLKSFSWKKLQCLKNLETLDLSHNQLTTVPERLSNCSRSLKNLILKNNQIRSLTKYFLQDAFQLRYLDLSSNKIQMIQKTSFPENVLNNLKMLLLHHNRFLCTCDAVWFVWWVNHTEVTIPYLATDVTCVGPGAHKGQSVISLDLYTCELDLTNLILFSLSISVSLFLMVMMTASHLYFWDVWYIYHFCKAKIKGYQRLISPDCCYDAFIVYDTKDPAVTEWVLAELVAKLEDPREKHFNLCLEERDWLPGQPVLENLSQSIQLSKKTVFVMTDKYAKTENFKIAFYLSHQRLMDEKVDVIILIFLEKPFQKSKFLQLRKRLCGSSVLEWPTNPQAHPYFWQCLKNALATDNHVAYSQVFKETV

IC50 [1]	IC50 [2]	SMILES
24 nM	23 nM	[2H]c1ccc2c(N3C[C@@H]4CN(c5ccc(CCN6C[C@@H](N)[C@@H](F)C6)nc5)CCN4[C@@H](C)C3)ccc(C#N)c2n1 [Example 117, 5-[(4S,9aR)-8-[6-[2-[(3R,4S)-3-amino-4-fluoro-pyrrolidin-1-yl]ethyl]-3-pyridyl]-4-methyl-3,4,6,7,9,9a-hexahydro-1H-pyrazino[1,2-a]pyrazin-2-yl]-2-deuterio-quinoline-8-carbonitrile]
6 nM	4 nM	[2H]c1ccc2c(N3C[C@@H]4CN(c5ncc(N6CC(C)(N)C6)cc5C)CCN4[C@@H](C)C3)ccc(C#N)c2n1 [Example 118, 5-[(4S,9aR)-8-[5-(3-amino-3-methyl-azetidin-1-yl)-3-methyl-2-pyridyl]-4-methyl-3,4,6,7,9,9a-hexahydro-1H-pyrazino[1,2-a]pyrazin-2-yl]-2-deuterio-quinoline-8-carbonitrile]
1 nM	5 nM	[2H]c1ccc2c(N3C[C@@H]4CN(c5ccc6c(n5)CCNC6)CCN4[C@@H](C)C3)ccc(C#N)c2n1 [Example 121, 5-[(4S,9aR)-4-methyl-8-(5,6,7,8-tetrahydro-1,6-naphthyridin-2-yl)-3,4,6,7,9,9a-hexahydro-1H-pyrazino[1,2-a]pyrazin-2-yl]-2-deuterio-quinoline-8-carbonitrile]
3 nM	9 nM	[2H]c1ccc2c(N3C[C@@H]4CN(c5ccc(CCN6C[C@H](OC)[C@@H](N)C6)cn5)CCN4[C@@H](C)C3)ccc(C#N)c2n1 [Example 122, 5-[(4S,9aR)-8-[5-[2-[(3S,4S)-3-amino-4-methoxy-pyrrolidin-1-yl]ethyl]-2-pyridyl]-4-methyl-3,4,6,7,9,9a-hexahydro-1H-pyrazino[1,2-a]pyrazin-2-yl]-2-deuterio-quinoline-8-carbonitrile]
6 nM	27 nM	[2H]c1ccc2c(N3C[C@@H]4CN(c5ccc(CN6C[C@@H](N)[C@H](OC)C6)c(C)n5)CCN4[C@@H](C)C3)ccc(C#N)c2n1 [Example 123, 5-[(4S,9aR)-8-[5-[[(3R,4R)-3-amino-4-methoxy-pyrrolidin-1-yl]methyl]-6-methyl-2-pyridyl]-4-methyl-3,4,6,7,9,9a-hexahydro-1H-pyrazino[1,2-a]pyrazin-2-yl]-2-deuterio-quinoline-8-carbonitrile]
51 nM	14 nM	C[C@@H]1CN(c2ccc(C#N)c3ncccc23)C[C@@H]2CN(CCc3ccc(N4C[C@H]5NCCO[C@@H]5C4)nc3)CCN21 [Example 124, 5-[(4R,9aS)-8-[2-[6-[(4aR,7aR)-3,4,4a,5,7,7a-hexahydro-2H-pyrrolo[3,4-b][1,4]oxazin-6-yl]-3-pyridyl]ethyl]-4-methyl-3,4,6,7,9,9a-hexahydro-1H-pyrazino[1,2-a]pyrazin-2-yl]quinoline-8-carbonitrile]
7 nM	1 nM	C[C@H]1CN(c2ccc(C#N)c3ncccc23)C[C@@H]2CN(c3ccc([C@@H]4CNCCO4)cc3)CCN21 [Example 125, 5-[(4S,9aS)-4-methyl-8-[4-[(2R)-morpholin-2-yl]phenyl]-3,4,6,7,9,9a-hexahydro-1H-pyrazino[1,2-a]pyrazin-2-yl]quinoline-8-carbonitrile]
